The numbers were not newly measured in US8648072B2, “Cannabinoid receptor antagonists/inverse agonists useful for treating metabolic disorders, including obesity and diabetes” (Jenrin Discovery, Inc., priority 2009, dated 2014), which cites them from elsewhere.

The data set deals with patients with type 2 diabetes. The following applies: after six months of treatment; baseline value of 7.9; placebo group 0.3%.

Molecules are shown by their SMILES.

For the compound `Cc1c(C(=O)NN2CCCCC2)nn(-c2ccc(Cl)cc2Cl)c1-c1ccc(Cl)cc1` [rimonabant], the HbA1c levels lowered is listed as 0.8%.
